Measured values from article PMC9937012 (Journal of Enzyme Inhibition and Medicinal Chemistry, 2023).

What was measured:
human AChE = human AChE (Homo sapiens, UniProt P22303); test: Inhibition of AChE; type: biochemical; conditions: for inhibition at 10 µM: read-out: AChE Inhibition at 10 µM [%]
human H3R = human H3R (Homo sapiens, UniProt Q9Y5N1); test: Human H3R radioligand displacement assay; conditions: for inhibition at 1 µM: read-out: hH3R Inhibition at 1 µM [%] ±SD (n)
human H4R = human H4R (Homo sapiens, UniProt Q9H3N8); test: Human H4R radioligand displacement assay; conditions: read-out: hH4R Inhibition at 10 µM [%] (n)
Sequence of human H4R (Q9H3N8 whole entry): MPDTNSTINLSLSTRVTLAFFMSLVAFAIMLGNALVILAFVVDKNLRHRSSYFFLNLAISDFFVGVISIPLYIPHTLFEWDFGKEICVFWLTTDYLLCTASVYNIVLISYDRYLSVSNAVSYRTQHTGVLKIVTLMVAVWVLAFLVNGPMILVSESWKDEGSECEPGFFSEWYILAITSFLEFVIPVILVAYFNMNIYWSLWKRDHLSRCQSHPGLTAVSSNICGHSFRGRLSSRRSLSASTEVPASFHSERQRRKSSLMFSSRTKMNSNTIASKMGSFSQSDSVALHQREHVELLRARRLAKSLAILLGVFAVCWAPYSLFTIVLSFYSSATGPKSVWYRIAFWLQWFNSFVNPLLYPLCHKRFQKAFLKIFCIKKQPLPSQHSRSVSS

human H1R = human H1R (Homo sapiens, UniProt P35367); test: Human H1R radioligand displacement assay; type: binding; conditions: for inhibition at 10 µM: read-out: hH1R Inhibition at 10 µM [%] ±SD (n); for inhibition at 1 µM: read-out: hH1R Inhibition at 1 µM [%] (n)
Sequence of human H1R (P35367 whole entry): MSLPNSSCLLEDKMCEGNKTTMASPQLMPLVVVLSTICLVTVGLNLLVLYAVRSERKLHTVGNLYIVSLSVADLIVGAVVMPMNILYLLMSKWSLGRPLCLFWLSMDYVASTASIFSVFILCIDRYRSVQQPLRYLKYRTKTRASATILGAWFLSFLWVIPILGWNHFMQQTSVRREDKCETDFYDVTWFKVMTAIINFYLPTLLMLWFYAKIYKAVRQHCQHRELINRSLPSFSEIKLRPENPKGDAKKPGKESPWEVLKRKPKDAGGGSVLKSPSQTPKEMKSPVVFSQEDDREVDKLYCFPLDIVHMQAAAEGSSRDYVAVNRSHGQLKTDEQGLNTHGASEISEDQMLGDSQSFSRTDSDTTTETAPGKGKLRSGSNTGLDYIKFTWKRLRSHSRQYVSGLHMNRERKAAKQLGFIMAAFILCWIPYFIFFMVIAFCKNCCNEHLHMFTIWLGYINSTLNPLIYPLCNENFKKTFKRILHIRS

Sequence of human AChE (P22303 32-614): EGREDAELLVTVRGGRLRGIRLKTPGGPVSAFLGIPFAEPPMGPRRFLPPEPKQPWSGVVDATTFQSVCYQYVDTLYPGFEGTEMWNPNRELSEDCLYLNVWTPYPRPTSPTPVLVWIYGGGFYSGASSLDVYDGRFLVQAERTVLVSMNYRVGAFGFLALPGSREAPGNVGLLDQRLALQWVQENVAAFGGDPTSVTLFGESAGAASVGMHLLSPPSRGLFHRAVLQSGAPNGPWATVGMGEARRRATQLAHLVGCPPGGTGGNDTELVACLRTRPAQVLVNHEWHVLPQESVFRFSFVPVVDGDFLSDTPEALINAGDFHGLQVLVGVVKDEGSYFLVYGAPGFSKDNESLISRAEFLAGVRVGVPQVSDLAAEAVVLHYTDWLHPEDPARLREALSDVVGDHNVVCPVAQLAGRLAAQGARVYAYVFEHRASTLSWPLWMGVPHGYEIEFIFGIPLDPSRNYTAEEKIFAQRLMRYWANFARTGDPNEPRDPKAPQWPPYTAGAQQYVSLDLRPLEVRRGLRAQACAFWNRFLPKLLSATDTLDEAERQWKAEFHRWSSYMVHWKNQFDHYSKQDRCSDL
Sequence of human H3R (Q9Y5N1 whole entry): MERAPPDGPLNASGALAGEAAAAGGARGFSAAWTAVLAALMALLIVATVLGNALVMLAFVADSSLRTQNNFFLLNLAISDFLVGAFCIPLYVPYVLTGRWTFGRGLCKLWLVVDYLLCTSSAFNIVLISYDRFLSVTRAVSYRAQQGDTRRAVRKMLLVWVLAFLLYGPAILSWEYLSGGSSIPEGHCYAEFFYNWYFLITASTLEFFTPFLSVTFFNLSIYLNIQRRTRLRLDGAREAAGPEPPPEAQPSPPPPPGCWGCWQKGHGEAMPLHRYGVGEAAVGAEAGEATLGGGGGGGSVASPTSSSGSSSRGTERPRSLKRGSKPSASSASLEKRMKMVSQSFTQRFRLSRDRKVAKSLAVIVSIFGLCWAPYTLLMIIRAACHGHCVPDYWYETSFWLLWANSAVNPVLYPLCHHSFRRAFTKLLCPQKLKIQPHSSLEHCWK

Compound	IC50 (human AChE)	inhibition at 10 µM (human AChE)	inhibition at 1 µM (human H3R)	inhibition at 10 µM (human H4R)	inhibition at 10 µM (human H1R)	Ki (human H3R)	inhibition at 1 µM (human H1R)
CCOC(=O)c1nc2ccc(OCCN3CCOCC3)cc2s1 [Compound 1a, Ethyl 6-(2-morpholinoethoxy)benzo[d]thiazole-2-carboxylate]	> 10 µM	7.64 ± 7.33%	63.3 ± 4.2%	39.2 ± 34.7%	< 0%		
CCOC(=O)c1nc2ccc(OCCN3CCCCC3)cc2s1 [Compound 1b, Ethyl 6-(2-(piperidin-1-yl)ethoxy)benzo[d]thiazole-2-carboxylate]	> 10 µM	9.25 ± 7.88%	35.2 ± 14.4%	61.7 ± 35.4%	< 0%		
CCOC(=O)c1nc2ccc(OCCN3CCCC3)cc2s1 [Compound 1c, Ethyl 6-(2-(pyrrolidin-1-yl)ethoxy)benzo[d]thiazole-2-carboxylate]	7.63 ± 1.6 µM	57.2 ± 5.41%	50.2 ± 10.9%	54 ± 12.1%	1 ± 9.7%		
COC(=O)c1nc2ccc(OCCN3CCOCC3)cc2s1 [Compound 1d, Methyl 6-(2-morpholinoethoxy)benzo[d]thiazole-2-carboxylate]	> 10 µM	5.52 ± 6.39%	25.3 ± 5.4%	51.3 ± 18.2%	11.2 ± 10.5%		
COC(=O)c1nc2ccc(OCCN3CCCCC3)cc2s1 [Compound 1e, Methyl 6-(2-(piperidin-1-yl)ethoxy)benzo[d]thiazole-2-carboxylate]	2.92 ± 0.37 µM	84 ± 4.25%	54.2 ± 28.4%		16.3 ± 41.7%		
COC(=O)c1nc2ccc(OCCCN[C@@H](Cc3ccc(O)cc3)C(=O)OC)cc2s1 [Compound 2a, Methyl (S)-6-(3-((3-(4-hydroxyphenyl)-1-methoxy-1-oxopropan-2-yl)amino)propoxy)benzo[d]thiazole-2-carboxylate]	> 10 µM	< 0%	54.8 ± 21.2%	35.5 ± 32.1%	< 0%		
O=C(c1nc2ccc(OCCN3CCCCC3)cc2s1)N1CCCCC1 [Compound 3a, Piperidin-1-yl-(6-(2-(piperidin-1-yl)ethoxy)benzo[d]thiazol-2-yl)methanone]	> 10 µM	35.5 ± 13.4%	68 ± 9.1%	30.3 ± 24.9%	< 0%	> 1 µM	
O=C(NCC1CCCCC1)c1nc2ccc(OCCNCC3CCCCC3)cc2s1 [Compound 3c, N-(Cyclohexylmethyl)-6-(2-((cyclohexylmethyl)amino)ethoxy)benzo[d]thiazole-2-carboxamide]	> 10 µM	< 0%	31.5 ± 11.4%	52.8 ± 11.8%	5.3 ± 14.2%		
O=C(NC1CCCCCC1)c1nc2ccc(OCCCNC3CCCCCC3)cc2s1 [Compound 3e, N-Cycloheptyl-6-(3-(cycloheptylamino)propoxy)benzo[d]thiazole-2-carboxamide]	> 10 µM	7.3 ± 2.31%	35.7 ± 11.5%	53.5 ± 15.2%	12.1 ± 18.3%		
O=C(NCC1CCCCC1)c1nc2ccc(OCCCNCC3CCCCC3)cc2s1 [Compound 3f, N-(Cyclohexylmethyl)-6-(3-((cyclohexylmethyl)amino)propoxy)benzo[d]thiazole-2-carboxamide]	> 10 µM	3.2 ± 3.69%	46.3 ± 14.7%	60.8 ± 30.4%	47.6 ± 12.9%		
O=C(NC1CC1)c1nc2ccc(OCCCNC3CC3)cc2s1 [Compound 3g, N-Cyclopropyl-6-(3-(cyclopropylamino)propoxy)benzo[d]thiazole-2-carboxamide]	> 10 µM	15.4 ± 11.2%	27.7 ± 12.8%	30.2 ± 14.3%	13.6 ± 10.7%		
O=C(NC1CCCC1)c1nc2ccc(OCCCNC3CCCC3)cc2s1 [Compound 3i, N-Cyclopentyl-6-(3-(cyclopentylamino)propoxy)benzo[d]thiazole-2-carboxamide]	7.31 ± 1.59 µM	59 ± 6.16%	51.2 ± 8.7%	50.5 ± 13%	35.5 ± 9.8%		
O=C(NC1CCCCCC1)c1nc2ccc(OCCCCNC3CCCCCC3)cc2s1 [Compound 3k, N-Cycloheptyl-6-(4-(cycloheptylamino)butoxy)benzo[d]thiazole-2-carboxamide]	> 10 µM	9.7 ± 4.91%	39 ± 8.9%	61.5 ± 8.9%	14.2 ± 11.7%		
O=C(NCC1CCCCC1)c1nc2ccc(OCCCCNCC3CCCCC3)cc2s1 [Compound 3l, N-(Cyclohexylmethyl)-6-(4-((cyclohexylmethyl)amino)butoxy)benzo[d]thiazole-2-carboxamide]	> 10 µM	16.7 ± 7.79%	57.3 ± 12.7%	49.7 ± 41%	14.7 ± 8.5%		
O=C(NC1CC1)c1nc2ccc(OCCCCNC3CC3)cc2s1 [Compound 3m, N-Cyclopropyl-6-(4-(cyclopropylamino)butoxy)benzo[d]thiazole-2-carboxamide]	> 10 µM	13.2 ± 8.07%	67.8 ± 2.5%	53.6 ± 11.1%	27 ± 10.6%		
O=C(NC1CCCCCC1)c1nc2ccc(OCCCCCNC3CCCCCC3)cc2s1 [Compound 3p, N-Cycloheptyl-6-((5-(cycloheptylamino)pentyl)oxy)benzo[d]thiazole-2-carboxamide]	> 10 µM	9.5 ± 3.58%	34 ± 7.5%	58.4 ± 8.3%	17.5 ± 8.4%		
O=C(NCC1CCCCC1)c1nc2ccc(OCCCCCNCC3CCCCC3)cc2s1 [Compound 3q, N-(Cyclohexylmethyl)-6-((5-((cyclohexylmethyl)amino)pentyl)oxy)benzo[d]thiazole-2-carboxamide]	> 10 µM	22.2 ± 5.5%		49.1 ± 22.8%	40.6 ± 8.2%	> 3 µM	
O=C(NC1CC1)c1nc2ccc(OCCCCCNC3CC3)cc2s1 [Compound 3r, N-Cyclopropyl-6-((5-(cyclopropylamino)pentyl)oxy)benzo[d]thiazole-2-carboxamide]	> 10 µM	14.8 ± 6.73%	38.8 ± 9.7%	51.6 ± 15.8%	23.7 ± 12.7%		
CC1CC(C)CN(CCCOc2ccc3nc(C(=O)N4CC(C)CC(C)C4)sc3c2)C1 (stereo not shown) [Compound 4c, (3,5-Dimethylpiperidin-1-yl)(6-(3-(3,5-dimethylpiperidin-1-yl)propoxy)benzo[d]thiazol-2-yl)methanone]	> 10 µM	6.9 ± 1.67%				0.34 µM	26.8 ± 31%
O=C(NCCc1ccccc1)c1nc2ccc(OCCCNCCc3ccccc3)cc2s1 [Compound 4d, N-Phenethyl-6-(3-(phenethylamino)propoxy)benzo[d]thiazole-2-carboxamide]	> 10 µM	5.2 ± 2.36%				> 1 µM	10.9 ± 37.1%
O=C(c1nc2ccc(OCCCN3CCc4ccccc4C3)cc2s1)N1CCc2ccccc2C1 [Compound 4e, (3,4-Dihydroisoquinolin-2(1H)-yl)(6-(3-(3,4-dihydroisoquinolin-2(1H)-yl)propoxy)benzo[d]thiazol-2-yl)methanone]	> 10 µM	6.2 ± 3.15%				0.34 µM	9.7 ± 23%
CCN1CCN(CCCOc2ccc3nc(C(=O)N4CCN(CC)CC4)sc3c2)CC1 [Compound 4f, (4-Ethylpiperazin-1-yl)(6-(3-(4-ethylpiperazin-1-yl)propoxy)benzo[d]thiazol-2-yl)methanone]	> 10 µM	8.2 ± 1.64%				0.43 µM	3 ± 36%
CN1CCN(CCCOc2ccc3nc(C(=O)N4CCN(C)CC4)sc3c2)CC1 [Compound 4g, (4-Methylpiperazin-1-yl)(6-(3-(4-methylpiperazin-1-yl)propoxy)benzo[d]thiazol-2-yl)methanone]	> 10 µM	7.7 ± 1.87%				> 1 µM	4.8 ± 37.7%
CC1CN(CCCOc2ccc3nc(C(=O)N4CCNC(C)C4)sc3c2)CCN1 (stereo not shown) [Compound 4h, (3-Methylpiperazin-1-yl)(6-(3-(3-methylpiperazin-1-yl)propoxy)benzo[d]thiazol-2-yl)methanone]	> 10 µM	8.3 ± 1.02%				0.47 µM	18.4 ± 27%
O=C(c1nc2ccc(OCCCN3CCN(CCO)CC3)cc2s1)N1CCN(CCO)CC1 [Compound 4i, (4-(2-Hydroxyethyl)piperazin-1-yl)(6-(3-(4-(2-hydroxyethyl)piperazin-1-yl)propoxy)benzo[d]thiazol-2-yl)methanone]	> 10 µM	7.3 ± 2.77%				0.12 µM	22.5 ± 27.4%
O=C(NCc1ccccc1)c1nc2ccc(OCCCNCc3ccccc3)cc2s1 [Compound 4j, N-Benzyl-6-(3-(benzylamino)propoxy)benzo[d]thiazole-2-carboxamide]	> 10 µM	20.3 ± 3.55%				0.64 µM	27 ± 39.4%
CC1CCN(CCCOc2ccc3nc(C(=O)N4CCC(C)CC4)sc3c2)CC1 [Compound 4l, (4-Methylpiperidin-1-yl)(6-(3-(4-methylpiperidin-1-yl)propoxy)benzo[d]thiazol-2-yl)methanone]	> 10 µM	8.4 ± 0.51%				0.43 µM	26.8 ± 26.3%
CC(=O)N1CCN(CCCOc2ccc3nc(C(=O)N4CCN(C(C)=O)C(C)C4)sc3c2)CC1C (stereo not shown) [Compound 4m, 1-(4-(6-(3-(4-Acetyl-3-methylpiperazin-1-yl)propoxy)benzo[d]thiazole-2-carbonyl)-2-methylpiperazin-1-yl)ethan-1-one]	> 10 µM	2.4 ± 2.06%				0.4 µM	27 ± 27.6%
